Results on seven compounds are retold here after US10980808B2, “Calmodulin inhibitors, Chk2 inhibitors and RSK inhibitors for the treatment of ribosomal disorders and ribosomapathies” (THE CHILDREN'S MEDICAL CENTER CORPORATION, priority 2016, dated 2021).

Usually IC50 stands for the concentration needed to halve the response being measured.

For assay [1], the system named is rps29−/− zebrafish embryos. As to the kind of experiment: hemoglobin (benzidine staining) rescue in rps29-/- zebrafish embryos. The format is in vivo. The note with it: benzidine staining.
The next assay concerns the target p70S6K (Homo sapiens, UniProt P23443). Put plainly: in vitro kinase profiling (Thermo Fisher SelectScreen), p70S6K. The format is biochemical. From the text: We asked if CaM and Chk2 inhibitors are blocking specific kinases. The known kinases that phosphorylate S392 are CK2 and p38. […] Thus, the question became what is TFP inhibiting upstream? Is it inhibiting a kinase that phosphorylates S392? We submitted CaM and Chk2 inhibitors for Kinase profiling using Thermo Fisher's SelectScreen.

The next assay deals with MEK. To be noted: upstream kinase; cited from earlier work.
The subject of another assay is Raf. The note with it: upstream kinase; cited from earlier work.
In the next assay the test system is PKC. The note with it: upstream kinase; cited from earlier work.
The next assay deals with RSK1 (Homo sapiens, UniProt Q15418). The note with it: in vitro; cited from earlier work.
The next assay addresses RSK2 (Homo sapiens, UniProt P51812). The note with it: in vitro; cited from earlier work.
A further assay addresses RSK3 (Homo sapiens, UniProt Q15349). The note with it: in vitro; cited from earlier work.
The next assay has as its target RSK4 (Homo sapiens, UniProt Q9UK32). The note with it: in vitro; cited from earlier work.
The test system of assay [2] is calcium in lysates of RPS19 knocked down cells. Put plainly: colorimetric calcium detection in cellular lysates. The format is cell-based. From the text: (§1) We hypothesize that the CaM inhibition is indirect, CaM is needed for calcium signaling. […] RSK inhibitor: SL and B1. P70s6K inhibitor: PF. In Summary we show: 1) CaM and Chk2 inhibitors reduce S392 phosphorylation of p53—to a much greater extent during ribosomal protein deficiency 2) CaM and Chk2 inhibitors also decrease P-p70S6K to a much greater extent during RP deficiency 3) p70S6K can directly phosphorylate p53 S392 in vitro 4) Total protein levels of RSK, p70S6K and rps6 are increased ruing RP deficiency in vitro and in vivo 5) RSK2 is increased in our microarray in […] vs WT 24 hpf embryos. Protein validates this upregulation 6) Calcium levels are increased during RP deficiency 7) Blocking the CaM-Calcium signaling (CaM inhibitors) or directly inhibiting RSK or p70S6K (Chk2 inhibitors) leads to a decrease in P-p53 and p53 activity. Reduced p53 activity leads to fewer RBCs undergoing apoptosis, alleviating the anemia.

In assay [3] the test system is p70S6K and RPS6 phosphorylation in cells. As to the kind of experiment: phosphorylation after calcium chelation in cells. It is filed as cell-based. To be noted: chelating calcium in cells.
Source text: as §1

Assay [4] deals with Chk2 activation in HT29 cells. The note with it: cited from earlier work.
In a further assay the test system is mouse thymocytes. To be noted: cited from earlier work.
Assay [5] concerns rps29−/− zebrafish embryos. The note with it: previously demonstrated; cited from earlier work.
The test system of assay [6] is RPS19 deficient cord blood derived CD34+ cells. Put plainly: human in vitro model of DBA: cord blood CD34+ cells with RPS19 shRNA, erythroid differentiation. The format is cell-based.
A further assay has as its system Rps19 deficient mice. As to the kind of experiment: DBA dox-inducible RPS19 knockdown mouse model. The format is in vivo. The note with it: treated every other day for 2 weeks.
A further assay relates to p53 in Saos2 cells. As to the kind of experiment: p53 activity in Saos2 cells transfected with p53 constructs (qPCR). The format is cell-based. Here is the method: FIG. 9A a schematic of wild type P53 and deleted regulatory region p53 (p53 reg). FIG. 9[…] of procedure. Saos2 cells (p53-null cells) transiently transfected with p53 constructs and were treated with vehicle or 20 μM TFP for 24 hours. TFP activity on p53 was assessed by the ability of TFP to reduce p21 mRNA levels measured by qPCR. FIG. 9C is a graph of p21 RNA expression. Since our compound decreases p53 activity, we wanted to determine the region of p53 is responsible for CaM inhibitor activity. […] Next, the c-terminal 30 amino acids from p53 (363-393) were removed. This construct is p53-reg. […] FIGS. 11A to 11C are schematics and graphs which indicate that p53 S392 phhosphomimetic prevents TFP from reducing p53 activity. To confirm the importance of the ability of CaM inhibitors to block the phosphorylation of p53, we created phosphomimetic p53 by replacing […], which mimics constitutive phosphorylation. We also generated a control phosphomimetic p53 where […]. This mutant should have no effect on the ability of TFP to reduce p53 activity. FIG. 11A is a schematic of experiment used to test these mutants, we transiently transfected, WT p53, […] and […] into Saos2 cells and treated them with vehicle or TFP. To assess p53 activity, we examined p21 and MDM2 mRNA levels. FIG. 11B is a graph of p21 Expression. FIG. 11C is a graph of MDM2 mRNA expression. […] Confirming that blocking the S392 phosphorylation is important for the activity of TFP.
For orientation: Quantitative PCR measures a nucleic acid by following its amplification.

In assay [7] the test system is p53 phosphorylation in 293T cells. Put plainly: mass spectrometry of p53 post-translational modifications in 293T cells. It is filed as cell-based. The note with it: 3 hours. Here is the method:
FIGS. 10A to 10C show schematics, graphs and gels that indicate CaM and Chk2 inhibitors reduce S392 phosphorylation. FIG. 10A is a schematic of conserved regulatory region phosphorylation sites. FIG. 10B are graphs of an unbiased mass spectrometry analysis looking for post-translational modifications of p53 altered in the presence of the CaM inhibitor TFP or the Chk2 inhibitor, BML. 293T cells were transfected with WT-p53 tagged with GFP and treated with TFP or BML for 3 hours. P53 was immunoprecipitated using an antibody against GFP and was submitted for mass spec analysis. […] By two different mass spec methods, either conventional mass spec or by TMT tagging of the peptide we found in both cases the percentage of peptides containing phosphorylated serine 392 was reduced in TFP and BML treated samples (FIG. 10B). It was also noted that this serine is conserved in both zebrafish and mouse (FIG. 10A). FIG. 10C is a Western Blot that indicates phosphorylation decrease.

Assay [8] has as its system 293T cells with RPS19 shRNA. Put plainly: phosphorylation in 293T cells with RPS19 shRNA. It is filed as cell-based, human. The text has this: FIGS. 17A to 17C are scehmatics and gels that indicate CaM and Chk2 inhibitors block phosphorylation of p70S6K selectively during RP deficiency. FIG. 17A schematic, we used 293T cells, and induced ribosomal protein deficiency using shRNA for RPS19 or Luc for control. […] ERK phosphorylation is increased by these inhibitors, which is also seen with RSK inhibitors. FIG. 17C a gel of the effect of Luc and […] shRNA on phosphorylated S392. […] RSK inhibitors increase ERK phosphorylation through a negative feedback loop. So TFP and BML similarly affect ERK in the same manner.

Assay [9] has as its system RPS19 deficient CD34 cells. Put plainly: phosphorylation in RPS19 deficient CD34 cells. The format is cell-based, human. From the text:
FIG. 18 is a schematic of the assay of RSK activation in human cells. The most relevant in vitro model in the blood field is primary human cells-such as Peripheral blood mononuclear cells (PBMCs). […] FIG. 19B schematic ov RP deficiency. TFP treatment reduces P-RPS6 and P-p53 […] and p53 total levels.

[10] abbreviates: Saos2 cells with WT p53 or S15D p53.

“Also recorded” adds a separate entry of the source. Structures can show the parent of a compound that is named as a salt.

Sequence of p70S6K (P23443 whole entry): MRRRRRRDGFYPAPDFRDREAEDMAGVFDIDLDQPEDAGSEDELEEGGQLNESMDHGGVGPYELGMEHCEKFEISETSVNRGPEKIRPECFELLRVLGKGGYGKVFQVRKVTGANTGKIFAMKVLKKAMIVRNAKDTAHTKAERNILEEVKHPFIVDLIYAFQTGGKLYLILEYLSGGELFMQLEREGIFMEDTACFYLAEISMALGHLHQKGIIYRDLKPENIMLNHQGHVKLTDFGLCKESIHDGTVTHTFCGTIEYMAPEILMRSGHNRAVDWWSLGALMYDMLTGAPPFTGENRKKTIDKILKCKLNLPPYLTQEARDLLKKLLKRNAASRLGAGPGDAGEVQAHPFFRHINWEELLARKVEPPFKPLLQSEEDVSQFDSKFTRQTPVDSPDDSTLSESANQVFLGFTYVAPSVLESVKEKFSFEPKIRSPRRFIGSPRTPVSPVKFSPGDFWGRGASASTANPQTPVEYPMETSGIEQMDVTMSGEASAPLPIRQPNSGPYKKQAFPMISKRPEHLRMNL
Sequence of RSK1 (Q15418 whole entry): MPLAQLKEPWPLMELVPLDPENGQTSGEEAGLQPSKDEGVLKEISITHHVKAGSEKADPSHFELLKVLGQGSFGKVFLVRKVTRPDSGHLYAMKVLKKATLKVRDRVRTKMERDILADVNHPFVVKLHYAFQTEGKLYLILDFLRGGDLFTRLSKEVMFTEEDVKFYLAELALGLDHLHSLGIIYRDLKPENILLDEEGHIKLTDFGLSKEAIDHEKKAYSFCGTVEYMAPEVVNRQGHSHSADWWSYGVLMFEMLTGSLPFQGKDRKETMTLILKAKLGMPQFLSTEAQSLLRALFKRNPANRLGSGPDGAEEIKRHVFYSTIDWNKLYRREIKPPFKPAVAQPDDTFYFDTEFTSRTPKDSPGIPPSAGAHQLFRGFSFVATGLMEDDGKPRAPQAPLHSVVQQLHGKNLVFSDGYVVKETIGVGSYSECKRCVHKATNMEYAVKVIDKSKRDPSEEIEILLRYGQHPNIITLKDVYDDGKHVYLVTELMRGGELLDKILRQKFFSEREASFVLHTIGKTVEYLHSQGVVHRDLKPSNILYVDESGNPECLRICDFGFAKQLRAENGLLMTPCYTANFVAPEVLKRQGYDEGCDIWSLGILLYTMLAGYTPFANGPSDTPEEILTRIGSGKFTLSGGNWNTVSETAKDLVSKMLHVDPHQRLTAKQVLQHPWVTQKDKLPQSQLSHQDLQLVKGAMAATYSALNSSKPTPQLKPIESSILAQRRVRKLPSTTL
Sequence of RSK3 (Q15349 whole entry): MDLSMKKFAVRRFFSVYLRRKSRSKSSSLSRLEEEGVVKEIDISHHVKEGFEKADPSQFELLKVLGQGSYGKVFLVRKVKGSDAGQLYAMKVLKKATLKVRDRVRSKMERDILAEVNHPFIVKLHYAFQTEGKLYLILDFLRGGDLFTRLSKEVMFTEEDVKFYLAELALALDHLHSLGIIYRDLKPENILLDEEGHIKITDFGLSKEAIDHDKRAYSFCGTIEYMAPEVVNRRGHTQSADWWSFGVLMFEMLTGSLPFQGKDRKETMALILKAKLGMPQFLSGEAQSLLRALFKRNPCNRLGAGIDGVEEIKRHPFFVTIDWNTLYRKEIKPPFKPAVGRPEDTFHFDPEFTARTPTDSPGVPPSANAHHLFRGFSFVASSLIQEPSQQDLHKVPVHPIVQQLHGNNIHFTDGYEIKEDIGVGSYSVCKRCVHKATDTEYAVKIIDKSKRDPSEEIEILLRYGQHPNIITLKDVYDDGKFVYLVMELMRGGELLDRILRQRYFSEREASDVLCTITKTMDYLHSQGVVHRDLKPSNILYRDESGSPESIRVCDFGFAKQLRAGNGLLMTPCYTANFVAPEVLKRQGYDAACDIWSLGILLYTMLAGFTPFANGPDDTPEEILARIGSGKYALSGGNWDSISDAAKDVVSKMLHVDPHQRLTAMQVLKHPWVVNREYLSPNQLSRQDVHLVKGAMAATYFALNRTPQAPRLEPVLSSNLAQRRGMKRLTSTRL
Sequence of RSK4 (Q9UK32 whole entry): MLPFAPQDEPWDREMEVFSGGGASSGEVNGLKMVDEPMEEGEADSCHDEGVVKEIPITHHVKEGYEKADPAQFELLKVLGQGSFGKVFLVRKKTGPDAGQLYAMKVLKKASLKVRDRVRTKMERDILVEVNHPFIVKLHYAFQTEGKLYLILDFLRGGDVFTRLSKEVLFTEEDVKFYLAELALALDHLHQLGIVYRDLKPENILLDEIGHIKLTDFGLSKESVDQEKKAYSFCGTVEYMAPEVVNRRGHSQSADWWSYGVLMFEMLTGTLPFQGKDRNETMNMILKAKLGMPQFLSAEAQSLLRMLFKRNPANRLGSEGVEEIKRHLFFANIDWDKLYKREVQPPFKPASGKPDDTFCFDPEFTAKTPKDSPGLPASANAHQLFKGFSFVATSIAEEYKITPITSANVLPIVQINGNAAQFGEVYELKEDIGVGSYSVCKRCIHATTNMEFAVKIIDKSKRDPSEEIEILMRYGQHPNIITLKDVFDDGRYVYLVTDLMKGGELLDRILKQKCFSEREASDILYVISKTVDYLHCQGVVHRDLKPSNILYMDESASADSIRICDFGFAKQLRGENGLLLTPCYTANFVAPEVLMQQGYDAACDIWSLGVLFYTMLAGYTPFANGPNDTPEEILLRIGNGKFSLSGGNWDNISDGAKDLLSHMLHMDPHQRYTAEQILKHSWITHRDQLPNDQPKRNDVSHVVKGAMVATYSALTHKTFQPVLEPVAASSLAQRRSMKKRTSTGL
Sequence of RSK2 (P51812 whole entry): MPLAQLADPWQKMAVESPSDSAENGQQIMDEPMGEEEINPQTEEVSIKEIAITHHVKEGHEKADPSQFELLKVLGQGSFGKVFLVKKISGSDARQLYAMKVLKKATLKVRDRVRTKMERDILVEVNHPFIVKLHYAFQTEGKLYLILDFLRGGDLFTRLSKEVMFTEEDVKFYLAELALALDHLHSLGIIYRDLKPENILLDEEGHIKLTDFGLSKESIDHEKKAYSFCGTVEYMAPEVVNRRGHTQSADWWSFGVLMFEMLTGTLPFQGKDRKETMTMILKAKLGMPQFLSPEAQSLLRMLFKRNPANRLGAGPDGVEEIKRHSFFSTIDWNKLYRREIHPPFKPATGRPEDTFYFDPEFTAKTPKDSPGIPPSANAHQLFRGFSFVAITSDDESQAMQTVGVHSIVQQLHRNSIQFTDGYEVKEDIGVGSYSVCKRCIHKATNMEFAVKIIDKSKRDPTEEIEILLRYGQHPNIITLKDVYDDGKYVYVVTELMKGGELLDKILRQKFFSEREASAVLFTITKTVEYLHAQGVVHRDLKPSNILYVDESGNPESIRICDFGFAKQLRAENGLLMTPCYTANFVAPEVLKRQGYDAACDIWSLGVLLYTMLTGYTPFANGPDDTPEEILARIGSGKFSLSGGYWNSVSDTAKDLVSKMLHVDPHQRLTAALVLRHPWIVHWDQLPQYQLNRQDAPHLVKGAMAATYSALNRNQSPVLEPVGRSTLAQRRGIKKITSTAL

Take `NC1=N/C(=C2/CCNC(=O)c3cc4[nH]c5ccccc5c4cc32)C(=O)N1` [III]: the “hemoglobin (Hb) in rps29−/− embryos” value in assay [1] was “Resues Hb; also recorded: rescue Hb”. Also, the “percent inhibition of in vitro kinase activity, p70S6K” value on p70S6K is “inhibition”.
As to “3-[(3,4-Di-O-acetyl-6-deoxy-α-L-mannopyranosyl)oxy]-5,7-dihydro-2-(4-hydroxyphenyl)-4H-1benzopyran-4-one [SL]”, the “hemoglobin (Hb) in rps29−/− embryos” value in assay [1] was “increase Hb”. In addition, the “inhibition of MEK” value in the assay on MEK is listed as “Does not inhibit”. The “inhibition of Raf” value with Raf is “Does not inhibit”. For the same compound, in the assay with PKC, the “inhibition of PKC” value is “Does not inhibit”.
With `CC(C)CCC1c2nc(Nc3cc(F)c(O)c(F)c3)ncc2N(C)C(=O)C1C` (stereo not shown) [BI-D1870], the IC50 is 31 nM at RSK1, 24 nM on RSK2, 18 nM at RSK3 and 15 nM at RSK4.
For `CC(=O)OCOC(=O)CN(CC(=O)OCOC(C)=O)c1ccccc1OCCOc1ccccc1N(CC(=O)OCOC(C)=O)CC(=O)OCOC(C)=O` [BAPTA-AM], the “calcium levels in cellular lysates” value in [2] is listed as “reduce the calcium levels”. In assay [3], the RPS6 phosphorylation entry is given as “reduces” and the p70S6K phosphorylation result is recorded as “reduces”.
As for `COc1cc2nc(-c3cc(F)ccc3O)nc(NC3CNC[C@H]3C(C)(C)O)c2cc1OC` (stereo partly shown) [CCT, CCT 241533 dihydrochloride], the “hemoglobin (Hb) in rps29−/− embryos” value in [1] (dihydrochloride) was “rescue Hb”. Also, the “percent inhibition of in vitro kinase activity, p70S6K” value at p70S6K is “inhibition”. In addition, the “Chk2 activation in response to etoposide-induced DNA damage” value in [4] was “inhibits”. Moreover, in the assay on mouse thymocytes, the ionizing radiation-induced apoptosis entry is reported as “blocks”.
As to `NCCCCCCNS(=O)(=O)c1cccc2ccccc12` [W-5], the “rescue of the vasculature defect” value in assay [5] is recorded as “rescue the vasculature defect”.
For `CN1CCN(CCCN2c3ccccc3Sc3ccc(C(F)(F)F)cc32)CC1` [TFP, trifluoperazine], the “hemoglobin (Hb) in rps29−/− embryos” value in assay [1] is “rescue Hb”. In assay [6], the “% erythroid precursor cells (CD71+) on day 12” value is given as “increases” and the “p21 mRNA levels” value is “dose dependently decreases”. Also, in the assay with Rps19 deficient mice, the hemoglobin levels entry is “significantly increases”, the “p21 mRNA levels (p53 activity) in bone marrow” value is on record as “reduced; also recorded: decreases” and the “red blood cell number” value was “significantly increases”. The “ability of p53 to form a tetramer” value in the assay with p53 in Saos2 cells is given as “did not inhibit”. In the assay on p53 in Saos2 cells (setting [10]), the “MDM2 mRNA levels” value was “able to reduce” and the “p21 mRNA levels” value is given as “able to reduce”. Also, in the assay on p53 in Saos2 cells (Saos2 cells with p53 S392D), the “MDM2 mRNA levels” value was “unable to reduce” and the “p21 mRNA levels” value was “unable to reduce”. Moreover, in assay [7], the “percentage of peptides containing phosphorylated Serine 6 of p53” value is “did not change” and the “percentage of peptides containing phosphorylated Serine 315 of p53” value is recorded as “did not change”. In addition, the “percentage of peptides containing phosphorylated serine 392 of p53” value in [7] (WT-p53-GFP) is “reduced”. Also, the ERK phosphorylation result in assay [8] is given as “increased”. For the same compound, the “phosphorylation of p70S6K” value in assay [8] (during ribosomal protein deficiency) is “selectively inhibited”. In assay [9], the P-RPS6 entry was “reduces”, the “P-p53 S392” value is listed as “reduces” and the p53 total levels entry is “reduces”.
